ChEMBL document CHEMBL1201862, “PubChem BioAssay data set” (2004)
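Test compounds were applied to cells in 96-well plates for 48 hours at 5 doses. GI50: concentration for 50% inhibition of growth.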 Active and inactive are the calls of the source. Cut-off read from the data, not from the text of the source: active = GI50 up to about 1.1 µM and inactive = higher.

Key:
Assay in all cases: inhibition of tumour cell growth, NCI panel, 48 h
786-0 = test system: 786-0
A498 = test system: A498
A549 = test system: A549
ACHN = test system: ACHN
CAKI-1 = test system: CAKI-1
CCRF-CEM = test system: CCRF-CEM
COLO 205 = test system: COLO 205
DLD-1 = test system: DLD-1
DMS-114 = test system: DMS-114
DMS-273 = test system: DMS-273
EKVX = test system: EKVX
HCC 2998 = test system: HCC 2998
HCT-116 = test system: HCT-116
HCT-15 = test system: HCT-15
HL-60 = test system: HL-60
HOP-18 = test system: HOP-18
HOP-62 = test system: HOP-62
HT-29 = test system: HT-29
IGROV-1 = test system: IGROV-1
K562 = test system: K562
KM-20L2 = test system: KM-20L2
KM12 = test system: KM12
LOX IMVI = test system: LOX IMVI
LXFL 529 = test system: LXFL 529
M14 = test system: M14
M19-MEL = test system: M19-MEL
MOLT-4 = test system: MOLT-4
Malme-3M = test system: Malme-3M
NCI-H226 = test system: NCI-H226
NCI-H23 = test system: NCI-H23
NCI-H460 = test system: NCI-H460
NCI-H522 = test system: NCI-H522
OVCAR-3 = test system: OVCAR-3
OVCAR-4 = test system: OVCAR-4
OVCAR-5 = test system: OVCAR-5
OVCAR-8 = test system: OVCAR-8
RPMI-8226 = test system: RPMI-8226
RXF 393 = test system: RXF 393
SF-268 = test system: SF-268
SF-295 = test system: SF-295
SK-MEL-28 = test system: SK-MEL-28
SK-MEL-2 = test system: SK-MEL-2
SK-MEL-5 = test system: SK-MEL-5
SK-OV-3 = test system: SK-OV-3
SN12C = test system: SN12C
SNB-19 = test system: SNB-19
SNB-75 = test system: SNB-75
SR = test system: SR
SW-620 = test system: SW-620
TK-10 = test system: TK-10
U-251 = test system: U-251
UACC-257 = test system: UACC-257
UACC-62 = test system: UACC-62
UO-31 = test system: UO-31
HOP-92 = test system: HOP-92
SF-539 = test system: SF-539
SNB-78 = test system: SNB-78

Measured: GI50

COC(=O)C(=O)C1(CCC(C)=O)c2ccccc2-c2ccccc21
inactive: 786-0 85.1 µM | A498 88.5 µM | A549 87.5 µM | ACHN > 100 µM | CAKI-1 35.2 µM | CCRF-CEM 63.2 µM | COLO 205 76.9 µM | DLD-1 66.2 µM | DMS-114 65.5 µM | DMS-273 43.6 µM | EKVX > 100 µM | HCC 2998 72.3 µM | HCT-116 43.6 µM | HL-60 35.5 µM | HOP-18 71.6 µM | HOP-62 68.7 µM | HT-29 79.8 µM | IGROV-1 > 100 µM | K562 44.5 µM | KM-20L2 > 100 µM | KM12 74.3 µM | LOX IMVI 62.1 µM | LXFL 529 47.1 µM | M14 41 µM | M19-MEL > 100 µM | MOLT-4 33.4 µM | Malme-3M 49.7 µM | NCI-H226 > 100 µM | NCI-H23 63.2 µM | NCI-H460 59.8 µM | NCI-H522 69.2 µM | OVCAR-3 44.6 µM | OVCAR-4 > 100 µM | OVCAR-5 > 100 µM | OVCAR-8 99.8 µM | RPMI-8226 36.4 µM | RXF 393 57.4 µM | SF-268 > 100 µM | SF-295 > 100 µM | SK-MEL-28 94 µM | SK-MEL-2 83.4 µM | SK-MEL-5 35.7 µM | SK-OV-3 > 100 µM | SN12C > 100 µM | SNB-19 > 100 µM | SNB-75 93.3 µM | SR 41 µM | SW-620 > 100 µM | TK-10 71.3 µM | U-251 68.5 µM | UACC-257 55.2 µM | UACC-62 97.7 µM | UO-31 41 µM
56.4 µM: HCT-15

C[n+]1c2ccccc2c(CNc2ccc(S(=O)(=O)N=C(N)N)cc2)c2ccccc21
10.2 µM: HCT-15
active: MOLT-4 0.311 µM | NCI-H460 0.61 µM
inactive: 786-0 6.84 µM | A498 17.4 µM | A549 6.17 µM | ACHN 6.95 µM | CAKI-1 1.72 µM | CCRF-CEM 1.45 µM | DLD-1 17.3 µM | DMS-114 2.65 µM | DMS-273 2.94 µM | EKVX 21 µM | HCC 2998 15.1 µM | HCT-116 5.78 µM | HL-60 1.46 µM | HOP-62 4.09 µM | HOP-92 5.24 µM | HT-29 20.2 µM | IGROV-1 16.3 µM | K562 6.78 µM | KM-20L2 13.6 µM | KM12 13.2 µM | LOX IMVI 3.29 µM | M14 6.05 µM | M19-MEL 14.5 µM | Malme-3M 13.6 µM | NCI-H226 1.6 µM | NCI-H23 5.31 µM | NCI-H522 9.77 µM | OVCAR-3 19.8 µM | OVCAR-4 29.1 µM | OVCAR-5 43.7 µM | OVCAR-8 9.66 µM | RPMI-8226 2.7 µM | RXF 393 15.1 µM | SF-268 7.06 µM | SF-295 3.6 µM | SF-539 3.24 µM | SK-MEL-28 12.4 µM | SK-MEL-2 24.8 µM | SK-MEL-5 6.92 µM | SK-OV-3 46 µM | SN12C 3.16 µM | SNB-19 4.05 µM | SNB-75 4.13 µM | SNB-78 19.9 µM | SW-620 6.95 µM | TK-10 29.4 µM | U-251 5.14 µM | UACC-257 16 µM | UACC-62 10.4 µM | UO-31 14.4 µM

COc1ccc(/C=N/N=C(\N)NO)c(OC)c1
inactive: 786-0 57.5 µM | A549 31.8 µM | ACHN 21 µM | CAKI-1 19.2 µM | CCRF-CEM 79.8 µM | COLO 205 49.7 µM | DLD-1 > 100 µM | DMS-114 18.1 µM | EKVX 38.3 µM | HCC 2998 12.2 µM | HCT-116 52 µM | HOP-18 14.6 µM | HOP-62 16.2 µM | HOP-92 11.2 µM | IGROV-1 > 100 µM | K562 15.7 µM | KM12 30.3 µM | LOX IMVI 24.7 µM | LXFL 529 8.81 µM | M19-MEL 24.5 µM | MOLT-4 77.6 µM | Malme-3M 68.7 µM | NCI-H226 34.1 µM | NCI-H23 46.7 µM | NCI-H522 > 10 µM | OVCAR-3 37.7 µM | OVCAR-4 > 100 µM | OVCAR-5 9.77 µM | OVCAR-8 61 µM | RPMI-8226 84.3 µM | RXF 393 54 µM | SF-268 48.3 µM | SF-295 16.1 µM | SF-539 23.3 µM | SK-MEL-28 > 100 µM | SK-MEL-2 52.4 µM | SK-MEL-5 59.8 µM | SK-OV-3 75.2 µM | SN12C 67.8 µM | SNB-19 > 100 µM | SNB-78 > 100 µM | SW-620 45.4 µM | U-251 > 100 µM | UACC-257 80.7 µM | UACC-62 27.9 µM | UO-31 13.8 µM
26.9 µM: HCT-15
